According to patent US6534070B1, “Composition with azelaic acid” (Schering Aktiengesellschaft, priority 1997, dated 2003):

Format: in vitro ADME, hairless mice (MF1 hr/hr Ola/Hsd)
Conditions: MF1 hr/hr Ola/Hsd (hairless), mouse, 24 h
Description: The percutaneous resorption of azelaic acid was examined from hydrogel formulations according to the invention in comparison to Skinoren^(R) cream. The purpose of the study was to describe the bioavailability of azelaic acid in the skin, the penetration of azelaic acid through the skin and the dermal metabolism of azelaic acid. In this respect, various preparations that contain ^14C-labeled azelaic acid were applied in the in vitro model of the FRANZ diffusion chamber on the intact complete skin of hairless mice (MF1 hr/hr Ola/Hsd; supplier: Winkelmann, Germany). An amount of 10 to 15 mg of the following compositions was applied to a skin area of 2 cm^2:
The time behavior of the ^14C-azelaic acid was measured in the acceptor medium (Hepes Hanks Balanced Salt Solution: HHBSS), which flows along under the skin, at two-hour intervals over a period of 24 hours. In addition, at the end of each experiment, the radioactivity on the skin surface, in the stratum corneum and in the remaining skin was determined. […]
The ^14C-azelaic acid found in the skin at the end of the experiment was metabolized only to a proportion of 3 to 11%. Therefore, the data on the radioactivity in the skin can virtually be equated to the concentration of unchanged azelaic acid.

O=C(O)CCCCCCCC(=O)O [^14C-azelaic acid, azelaic acid]
proportion of 14C-azelaic acid found in the skin that was metabolized: 3 to 11%
